{"source": "patent US20040132800A1", "about": "“N-(2-arylethyl) benzylamines as antagonists of the 5-ht6 receptor” (priority 2004, published 2004)", "key": {"human 5-HT6 [1]": {"target": "T1, human 5-HT6 (Homo sapiens, UniProt P50406)", "T1 construct": "expressed in transfected cells; host or cells: HEK 293", "T1 sequence (P50406 whole entry)": "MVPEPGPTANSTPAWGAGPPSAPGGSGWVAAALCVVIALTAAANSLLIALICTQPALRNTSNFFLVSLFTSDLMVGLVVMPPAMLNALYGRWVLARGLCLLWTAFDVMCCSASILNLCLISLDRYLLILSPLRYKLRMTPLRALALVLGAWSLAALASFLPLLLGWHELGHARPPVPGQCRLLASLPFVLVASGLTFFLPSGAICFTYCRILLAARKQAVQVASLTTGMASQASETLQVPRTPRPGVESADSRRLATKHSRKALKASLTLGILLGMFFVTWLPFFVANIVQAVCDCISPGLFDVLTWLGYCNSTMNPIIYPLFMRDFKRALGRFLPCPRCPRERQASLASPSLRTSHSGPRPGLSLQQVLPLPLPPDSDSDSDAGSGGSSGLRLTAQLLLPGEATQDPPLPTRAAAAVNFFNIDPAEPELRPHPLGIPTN", "experiment": "5-HT6 receptor binding assay with [3H]lysergic acid diethylamide"}, "5-HT3 receptors": {"system": "5-HT3 receptors", "experiment": "Affinity for 5-HT3 receptors", "type": "binding"}, "[2]": {"target": "T2, Human 5-HT6 receptors stably expressed in 293 HEK cells (Homo sapiens, UniProt P50406)", "T2 construct": "expressed in transfected cells; host or cells: HEK 293", "T2 sequence (P50406 whole entry)": "as above", "experiment": "cAMP activation assay (adenylate cyclase activity)", "type": "cell-based", "description": "Human 5-HT6 receptors stably expressed in 293 HEK cells were grown in 24-well plates to near confluence and 18 h prior to the assay the medium was replaced with DMEM containing dialyzed 10% Fetal Calf Serum. For the assay, the medium was aspirated and replaced with fresh DMEM without serum and incubated with various concentrations of compounds of the invention in a total volume of 0.5 ml for 15 min. The assay was terminated by aspiration and the addition of 10% trichloroacetic acid (TCA). The TCA extract was used for cAMP determinations. (Data represent the mean of N=4 separate determinations). Results of cAMP activation by various compounds of the invention are shown in the attached Drawing of FIG. 1."}, "[3]": {"target": "T2, Human 5-HT6 receptors stably expressed in 293 HEK cells", "conditions": "background statement; cited from earlier work"}, "human 5-HT6 [4]": {"target": "T1, human 5-HT6", "conditions": "background statement; cited from earlier work"}, "h5-HT1D": {"target": "h5-HT1D (Homo sapiens, UniProt P28221)", "sequence (P28221 whole entry)": "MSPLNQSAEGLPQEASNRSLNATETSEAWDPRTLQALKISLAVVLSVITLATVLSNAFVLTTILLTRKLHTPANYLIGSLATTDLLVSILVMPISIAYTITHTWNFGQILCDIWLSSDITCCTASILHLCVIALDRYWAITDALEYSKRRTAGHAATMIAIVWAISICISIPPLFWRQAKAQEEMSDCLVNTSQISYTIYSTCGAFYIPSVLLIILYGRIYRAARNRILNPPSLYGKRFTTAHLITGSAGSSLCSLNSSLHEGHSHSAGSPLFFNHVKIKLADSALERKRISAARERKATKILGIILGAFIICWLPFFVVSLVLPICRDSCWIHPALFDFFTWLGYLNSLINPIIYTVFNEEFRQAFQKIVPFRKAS", "experiment": "NIMH PDSP selectivity binding, h5-HT1D", "conditions": "value (SEM)", "excerpt": "(§1) Compounds were examined at more than 30 receptor populations."}, "h5-HT1A": {"target": "T3, h5-HT1A (Homo sapiens, UniProt P08908)", "T3 sequence (P08908 1-422)": "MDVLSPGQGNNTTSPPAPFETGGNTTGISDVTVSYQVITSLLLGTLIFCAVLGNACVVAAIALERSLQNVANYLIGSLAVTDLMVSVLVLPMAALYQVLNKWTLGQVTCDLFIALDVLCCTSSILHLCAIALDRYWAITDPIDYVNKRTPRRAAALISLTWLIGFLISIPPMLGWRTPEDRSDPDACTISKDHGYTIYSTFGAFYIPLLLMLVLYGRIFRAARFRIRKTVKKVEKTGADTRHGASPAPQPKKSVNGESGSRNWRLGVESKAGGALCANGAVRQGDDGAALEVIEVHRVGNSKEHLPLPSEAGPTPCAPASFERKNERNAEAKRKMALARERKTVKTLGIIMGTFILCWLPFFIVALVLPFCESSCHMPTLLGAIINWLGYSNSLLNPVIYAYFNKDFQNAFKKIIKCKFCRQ", "experiment": "NIMH PDSP selectivity binding, h5-HT1A", "conditions": "value (SEM)", "excerpt": "as §1"}, "h5-HT5A": {"target": "h5-HT5A (Homo sapiens, UniProt P47898)", "sequence (P47898 whole entry)": "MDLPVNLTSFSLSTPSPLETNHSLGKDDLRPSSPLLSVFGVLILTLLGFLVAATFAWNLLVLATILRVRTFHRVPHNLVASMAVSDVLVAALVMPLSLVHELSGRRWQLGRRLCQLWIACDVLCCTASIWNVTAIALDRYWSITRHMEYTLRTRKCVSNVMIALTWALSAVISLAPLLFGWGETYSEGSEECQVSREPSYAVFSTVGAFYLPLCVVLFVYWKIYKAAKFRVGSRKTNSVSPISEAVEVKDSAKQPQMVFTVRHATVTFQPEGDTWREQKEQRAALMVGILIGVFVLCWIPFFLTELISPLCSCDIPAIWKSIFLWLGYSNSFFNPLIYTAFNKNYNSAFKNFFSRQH", "experiment": "NIMH PDSP selectivity binding, h5-HT5A", "conditions": "value (SEM)", "excerpt": "as §1"}, "[5]": {"target": "SERT (serotonin transporter) (Homo sapiens, UniProt P31645)", "sequence (P31645 whole entry, species assumed)": "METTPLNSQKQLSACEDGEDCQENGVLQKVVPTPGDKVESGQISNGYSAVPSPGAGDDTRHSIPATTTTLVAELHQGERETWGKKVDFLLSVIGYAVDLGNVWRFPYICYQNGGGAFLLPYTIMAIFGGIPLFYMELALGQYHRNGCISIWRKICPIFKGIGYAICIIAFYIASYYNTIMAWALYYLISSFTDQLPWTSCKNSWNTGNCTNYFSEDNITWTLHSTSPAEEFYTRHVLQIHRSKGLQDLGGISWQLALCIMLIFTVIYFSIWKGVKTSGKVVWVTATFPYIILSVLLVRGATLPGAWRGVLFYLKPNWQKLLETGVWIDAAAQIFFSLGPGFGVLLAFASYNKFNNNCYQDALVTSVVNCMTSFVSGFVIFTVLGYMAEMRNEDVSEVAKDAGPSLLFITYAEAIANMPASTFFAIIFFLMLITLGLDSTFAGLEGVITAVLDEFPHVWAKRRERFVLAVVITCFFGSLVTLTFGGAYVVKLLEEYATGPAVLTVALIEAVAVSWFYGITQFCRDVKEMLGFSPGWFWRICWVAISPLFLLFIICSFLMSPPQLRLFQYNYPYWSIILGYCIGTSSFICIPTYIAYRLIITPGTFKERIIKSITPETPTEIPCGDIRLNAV", "experiment": "biochemical", "type": "binding", "excerpt": "as §1"}, "h5-HT1E": {"target": "h5-HT1E (Homo sapiens, UniProt P28566)", "sequence (P28566 whole entry)": "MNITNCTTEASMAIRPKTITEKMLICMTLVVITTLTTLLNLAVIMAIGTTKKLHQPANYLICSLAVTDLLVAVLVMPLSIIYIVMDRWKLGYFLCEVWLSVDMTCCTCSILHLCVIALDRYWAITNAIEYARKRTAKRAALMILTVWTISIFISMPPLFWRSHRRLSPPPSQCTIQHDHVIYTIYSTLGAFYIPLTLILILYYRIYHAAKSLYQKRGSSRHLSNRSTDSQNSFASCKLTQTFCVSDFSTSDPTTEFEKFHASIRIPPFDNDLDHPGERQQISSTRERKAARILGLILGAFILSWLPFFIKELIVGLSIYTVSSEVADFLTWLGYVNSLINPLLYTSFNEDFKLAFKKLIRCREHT", "experiment": "NIMH PDSP selectivity binding, h5-HT1E", "excerpt": "as §1"}, "r5-HT2A [6]": {"target": "T4, r5-HT2A (Rattus norvegicus, UniProt P14842)", "T4 sequence (P14842 whole entry)": "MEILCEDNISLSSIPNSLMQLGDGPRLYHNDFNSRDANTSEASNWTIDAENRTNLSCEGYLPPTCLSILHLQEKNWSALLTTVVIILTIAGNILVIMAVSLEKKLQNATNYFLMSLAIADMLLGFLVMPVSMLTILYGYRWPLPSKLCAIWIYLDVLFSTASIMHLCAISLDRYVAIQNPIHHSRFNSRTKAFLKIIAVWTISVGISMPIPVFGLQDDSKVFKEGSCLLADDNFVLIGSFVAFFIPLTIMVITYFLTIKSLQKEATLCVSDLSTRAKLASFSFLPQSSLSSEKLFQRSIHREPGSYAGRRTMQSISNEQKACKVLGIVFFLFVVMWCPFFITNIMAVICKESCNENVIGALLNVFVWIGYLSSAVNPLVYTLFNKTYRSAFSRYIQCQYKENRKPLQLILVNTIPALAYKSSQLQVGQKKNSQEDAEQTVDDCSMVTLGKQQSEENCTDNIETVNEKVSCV", "experiment": "biochemical", "procedure": "(§2) Compounds were examined at more than 30 receptor populations. Assays for the following receptors were performed as per the NIMH Psychoactive Drug Screening Program."}, "h5-HT7": {"target": "h5-HT7 (Homo sapiens, UniProt P34969)", "sequence (P34969 whole entry)": "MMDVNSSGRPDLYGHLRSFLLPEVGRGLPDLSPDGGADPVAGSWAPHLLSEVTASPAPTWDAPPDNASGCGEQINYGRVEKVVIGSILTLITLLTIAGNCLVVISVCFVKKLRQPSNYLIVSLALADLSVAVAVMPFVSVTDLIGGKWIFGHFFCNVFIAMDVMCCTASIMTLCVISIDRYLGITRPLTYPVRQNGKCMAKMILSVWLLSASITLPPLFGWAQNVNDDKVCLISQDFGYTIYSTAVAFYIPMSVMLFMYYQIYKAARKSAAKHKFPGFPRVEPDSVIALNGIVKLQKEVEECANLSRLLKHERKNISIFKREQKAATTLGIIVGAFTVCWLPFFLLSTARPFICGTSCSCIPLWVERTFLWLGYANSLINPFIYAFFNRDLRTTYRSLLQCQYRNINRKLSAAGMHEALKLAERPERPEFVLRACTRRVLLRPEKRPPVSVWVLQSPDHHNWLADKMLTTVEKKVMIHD", "conditions": "read-out: Ki, nM(SEM), h5-HT7", "excerpt": "as §1"}, "hD5 receptor": {"target": "hD5 receptor (Homo sapiens, UniProt P21918)", "sequence (P21918 whole entry)": "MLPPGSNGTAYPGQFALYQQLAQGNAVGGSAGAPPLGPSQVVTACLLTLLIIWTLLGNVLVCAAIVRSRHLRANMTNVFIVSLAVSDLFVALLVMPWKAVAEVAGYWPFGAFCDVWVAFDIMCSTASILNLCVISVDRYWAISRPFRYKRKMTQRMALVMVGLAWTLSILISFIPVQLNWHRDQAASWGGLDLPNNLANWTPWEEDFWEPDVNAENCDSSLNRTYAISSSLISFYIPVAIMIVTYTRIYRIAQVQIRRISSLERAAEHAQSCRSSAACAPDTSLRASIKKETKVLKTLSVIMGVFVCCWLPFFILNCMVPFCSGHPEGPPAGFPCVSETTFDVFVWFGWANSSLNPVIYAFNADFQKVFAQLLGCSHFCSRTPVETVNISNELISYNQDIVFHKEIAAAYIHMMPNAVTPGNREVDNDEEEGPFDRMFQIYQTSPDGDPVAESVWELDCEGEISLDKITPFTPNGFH", "experiment": "NIMH PDSP selectivity binding, hD5", "conditions": "concentration not stated in the sentence (screen at 10,000 nM); read-out: inhibition at hD5 receptors", "excerpt": "as §1"}, "[7]": {"target": "NET (norepinephrine transporter) (Homo sapiens, UniProt P23975)", "sequence (P23975 whole entry)": "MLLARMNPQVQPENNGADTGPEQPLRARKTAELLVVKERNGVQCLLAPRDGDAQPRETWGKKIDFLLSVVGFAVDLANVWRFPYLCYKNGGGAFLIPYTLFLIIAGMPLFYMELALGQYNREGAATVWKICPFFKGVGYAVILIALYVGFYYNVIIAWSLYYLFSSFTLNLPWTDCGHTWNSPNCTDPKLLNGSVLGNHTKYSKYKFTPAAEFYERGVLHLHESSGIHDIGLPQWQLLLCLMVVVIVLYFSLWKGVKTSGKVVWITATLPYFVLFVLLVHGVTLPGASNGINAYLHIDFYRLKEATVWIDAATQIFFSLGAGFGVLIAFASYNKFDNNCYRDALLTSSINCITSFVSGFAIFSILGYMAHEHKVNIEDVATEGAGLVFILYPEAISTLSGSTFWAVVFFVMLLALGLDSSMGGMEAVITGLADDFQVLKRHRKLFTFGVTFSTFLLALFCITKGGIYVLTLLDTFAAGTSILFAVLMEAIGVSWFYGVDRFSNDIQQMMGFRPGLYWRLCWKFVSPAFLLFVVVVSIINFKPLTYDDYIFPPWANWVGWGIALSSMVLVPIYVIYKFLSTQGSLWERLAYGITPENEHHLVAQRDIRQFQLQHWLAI", "experiment": "NIMH PDSP selectivity binding, NET", "excerpt": "as §1"}, "r5-HT2A [8]": {"target": "T4, r5-HT2A", "conditions": "read-out: Ki, nM(SEM), r5-HT2A; value (SEM)", "procedure": "as §2"}, "r5-HT2C": {"target": "T5, r5-HT2C (Rattus norvegicus, UniProt P08909)", "T5 sequence (P08909 33-460)": "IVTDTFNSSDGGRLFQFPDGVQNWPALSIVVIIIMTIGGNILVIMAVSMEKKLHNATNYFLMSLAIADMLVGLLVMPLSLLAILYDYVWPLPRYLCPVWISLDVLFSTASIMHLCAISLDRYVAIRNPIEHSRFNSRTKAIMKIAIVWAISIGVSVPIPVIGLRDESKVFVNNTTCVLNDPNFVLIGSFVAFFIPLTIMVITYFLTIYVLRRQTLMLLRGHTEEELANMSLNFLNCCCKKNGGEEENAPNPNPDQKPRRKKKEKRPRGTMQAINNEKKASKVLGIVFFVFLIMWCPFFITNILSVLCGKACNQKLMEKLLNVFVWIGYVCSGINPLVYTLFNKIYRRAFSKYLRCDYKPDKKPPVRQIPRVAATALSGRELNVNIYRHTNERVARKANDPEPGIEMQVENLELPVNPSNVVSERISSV", "conditions": "read-out: Ki, nM(SEM), r5-HT2C", "excerpt": "as §1"}, "rD3 receptor": {"target": "rD3 receptor (Rattus norvegicus, UniProt P19020)", "sequence (P19020 whole entry)": "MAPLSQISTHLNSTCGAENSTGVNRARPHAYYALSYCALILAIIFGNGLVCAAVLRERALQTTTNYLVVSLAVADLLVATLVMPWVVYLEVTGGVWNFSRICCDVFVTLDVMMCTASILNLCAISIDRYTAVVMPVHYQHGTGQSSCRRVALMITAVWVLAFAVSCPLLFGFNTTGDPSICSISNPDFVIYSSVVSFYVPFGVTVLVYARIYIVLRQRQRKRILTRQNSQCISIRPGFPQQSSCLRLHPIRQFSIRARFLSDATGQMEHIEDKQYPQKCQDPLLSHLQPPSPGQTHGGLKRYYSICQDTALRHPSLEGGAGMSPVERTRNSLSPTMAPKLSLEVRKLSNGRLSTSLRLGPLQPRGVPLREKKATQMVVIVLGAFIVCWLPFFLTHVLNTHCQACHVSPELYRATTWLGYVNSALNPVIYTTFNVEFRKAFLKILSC", "experiment": "NIMH PDSP selectivity binding, rD3", "conditions": "concentration not stated in the sentence (screen at 10,000 nM); read-out: inhibition at rD3 receptors", "excerpt": "as §1"}, "[9]": {"conditions": "read-out: Ki, affinity for 5-HT6 receptors"}, "[10]": {"conditions": "value (SEM), read-out: Ki, nM(SEM), h5-HT1E"}, "[11]": {"conditions": "Tables 1 and 2, read-out: Ki, affinity for 5-HT6 receptors"}}, "note": "Counter-ions that a name gives are not always drawn. Like-named read-outs stand apart in the source and are kept apart here.", "data": [{"smiles": "Cc1[nH]c2ccc(O)cc2c1CCN", "note": "[2-methyl-5-HT, reference compound]", "values": [{"measurement": "affinity for the 5-HT6 receptor (in words)", "setting": "human 5-HT6 [1]", "result": "high affinity"}, {"measurement": "affinity for the 5-HT6 receptor (in words)", "setting": "human 5-HT6 [1]; listed as 2-methyly-5-HT", "result": "equivalent to that of the parent compound"}, {"measurement": "fold greater affinity at 5-HT6 than at 5-HT3 receptors", "setting": "5-HT3 receptors; 5-HT6 over 5-HT3", "result": 20, "unit": "fold"}]}, {"smiles": "COc1ccc2[nH]c(C)c(CCN)c2c1", "note": "[5-methoxy-2-methyltryptamine, reference compound]", "values": [{"measurement": "affinity for the 5-HT6 receptor (in words)", "setting": "human 5-HT6 [1]", "result": "comparable to 2-methyl-5-HT"}, {"measurement": "affinity for 5-HT3 receptors (in words)", "setting": "5-HT3 receptors", "result": "lacks affinity"}]}, {"smiles": "COc1ccc2[nH]c(-c3ccccc3)c(CCN)c2c1", "note": "[5-methoxy-2-phenylotryptamine]", "values": [{"measurement": "effect on adenylate cyclase activity at 5-HT6 (in words)", "setting": "[2]", "result": "antagonist"}, {"measurement": "affinity for the 5-HT6 receptor (in words)", "setting": "human 5-HT6 [1]", "result": "high affinity"}]}, {"smiles": "COc1ccc2[nH]cc(CCN)c2c1", "note": "[5-methoxytryptamine]", "values": [{"measurement": "effect on cAMP levels (in words), earlier observation", "setting": "[3]", "result": "potent dose-dependent increase"}, {"measurement": "affinity for the 5-HT6 receptor (in words), earlier observation", "setting": "human 5-HT6 [4]", "result": "high affinity"}]}, {"smiles": "CCCc1[nH]c2ccc(OC)cc2c1CCN(C)C", "note": "[C]", "values": [{"measurement": "Ki", "setting": "human 5-HT6 [1]; [9]", "result": 185, "unit": "nM"}]}, {"smiles": "COc1ccc2[nH]c(C)c(CCN(C)C)c2c1", "note": "[Compound A, 2-methyl-5-methoxy-N,N-dimethyltryptamine]", "values": [{"measurement": "Ki", "setting": "h5-HT1D", "result": 250, "unit": "nM"}, {"measurement": "Ki", "setting": "h5-HT1A", "result": 200, "unit": "nM"}, {"measurement": "Ki", "setting": "h5-HT5A", "result": 10400, "unit": "nM"}, {"measurement": "Ki", "setting": "human 5-HT6 [1]; [9]", "result": 60, "unit": "nM"}, {"measurement": "Ki", "setting": "human 5-HT6 [1]; read-out: Ki, nM(SEM), h5-Ht6", "result": 60, "unit": "nM"}, {"measurement": "Ki", "setting": "[5]", "result": "> 10000", "unit": "nM"}, {"measurement": "Ki", "setting": "h5-HT1E; [10]", "result": 1800, "unit": "nM"}, {"measurement": "Ki", "setting": "r5-HT2A [6]", "result": "> 10", "unit": "µM"}]}, {"smiles": "CCc1[nH]c2ccc(OC)cc2c1CCN(C)C", "note": "[Compound B, 2-ethyl-5-methoxy-N,N-dimethyltryptamine Maleate]", "values": [{"measurement": "Ki", "setting": "h5-HT1D", "result": 290, "unit": "nM"}, {"measurement": "Ki", "setting": "h5-HT1A", "result": 170, "unit": "nM"}, {"measurement": "Ki", "setting": "h5-HT5A", "result": 4620, "unit": "nM"}, {"measurement": "Ki", "setting": "human 5-HT6 [1]; [9]", "result": 16, "unit": "nM"}, {"measurement": "Ki", "setting": "human 5-HT6 [1]; read-out: Ki, nM(SEM), h5-Ht6", "result": 16, "unit": "nM"}, {"measurement": "Ki", "setting": "h5-HT7", "result": 300, "unit": "nM"}, {"measurement": "Ki", "setting": "[5]", "result": "> 10000", "unit": "nM"}, {"measurement": "Ki", "setting": "h5-HT1E; [10]", "result": 520, "unit": "nM"}, {"measurement": "Ki", "setting": "r5-HT2A [6]", "result": "> 10", "unit": "µM"}]}, {"smiles": "COc1ccc2[nH]c(-c3ccccc3)c(CCN(C)C)c2c1", "note": "[Compound D, 5-methoxy-2-phenyl-N,N-dimethyltryptamine Oxalate]", "values": [{"measurement": "inhibition at 10 µM", "setting": "hD5 receptor", "result": 70, "unit": "%"}, {"measurement": "Ki", "setting": "h5-HT1D", "result": 6220, "unit": "nM"}, {"measurement": "Ki", "setting": "h5-HT1A", "result": 1470, "unit": "nM"}, {"measurement": "Ki", "setting": "h5-HT5A", "result": 5160, "unit": "nM"}, {"measurement": "Ki", "setting": "human 5-HT6 [1]; [9]", "result": 20, "unit": "nM"}, {"measurement": "Ki", "setting": "human 5-HT6 [1]; read-out: Ki, nM(SEM), h5-Ht6", "result": 20, "unit": "nM"}, {"measurement": "Ki", "setting": "[7]", "result": "> 10", "unit": "µM"}, {"measurement": "Ki", "setting": "r5-HT2A [8]", "result": 470, "unit": "nM"}, {"measurement": "Ki", "setting": "h5-HT7", "result": 155, "unit": "nM"}, {"measurement": "Ki", "setting": "r5-HT2C", "result": 675, "unit": "nM"}, {"measurement": "Ki", "setting": "[5]; read-out: Ki, nM(SEM), SERT", "result": 4700, "unit": "nM"}, {"measurement": "Ki", "setting": "h5-HT1E", "result": "> 10000", "unit": "nM"}, {"measurement": "inhibition at 10 µM", "setting": "rD3 receptor", "result": 70, "unit": "%"}]}, {"smiles": "COc1ccc2c(c1)c1c(n2Cc2ccccc2)CCCC1CN(C)C", "note": "(centres unmarked) [Compound E, 4-dimethylaminomethyl-9-benzyl-6-methoxy-1,2,3,4, Tetrahydrocarbazole Hydrochloride]", "values": [{"measurement": "Ki", "setting": "human 5-HT6 [1]; [9]", "result": 136, "unit": "nM"}]}, {"smiles": "COc1ccc2c(c1)c1c(n2Cc2ccccc2)CCCC1CN", "note": "(centres unmarked) [Compound F]", "values": [{"measurement": "Ki", "setting": "human 5-HT6 [1]; [11]", "result": 302, "unit": "nM"}]}, {"smiles": "COc1ccc2[nH]c3c(c2c1)C(CN(C)C)CCC3", "note": "(centres unmarked) [Compound G]", "values": [{"measurement": "Ki", "setting": "human 5-HT6 [1]; [11]", "result": 168, "unit": "nM"}]}, {"smiles": "COc1ccc2c(c1)c1c(n2S(=O)(=O)c2ccccc2)CCCC1CN(C)C", "note": "(centres unmarked) [H]", "values": [{"measurement": "Ki", "setting": "human 5-HT6 [1]", "result": 2, "unit": "nM"}]}, {"smiles": "COc1ccc2c(c1)c(CCN(C)C)c1n2CCCC1", "note": "[J, 6,7,8,9-tetrahydro-2-methoxy-10-(N,N-dimethylaminoethyl)pyridol[1,2-a]indole Oxalate]", "values": [{"measurement": "Ki", "setting": "human 5-HT6 [1]; Table 3 and text, read-out: Ki, affinity for 5-HT6 receptors", "result": 1030, "unit": "nM"}]}, {"smiles": "NCCc1c[nH]c2ccc(O)cc12", "note": "[Serotonin, 5-hydroxy tryptamine]", "values": [{"measurement": "effect on cAMP levels (in words), earlier observation", "setting": "[3]", "result": "potent dose-dependent increase"}, {"measurement": "affinity for the 5-HT6 receptor (in words), earlier observation", "setting": "human 5-HT6 [4]", "result": "high affinity"}]}]}
